# Experimental data as given in publication PMC12029992, “Beyond-Rule-of-Five Compounds Are Not Different: In Vitro–In Vivo Extrapolation of Female CD-1 Mouse Clearance Based on Merck Healthcare KGaA Compound Set” (Pharmaceuticals, 2025).
# Experiments:
# [1] = Determination of CLint in mouse hepatocytes (hepatocyte stability); type: in vitro ADME; settings: female CD-1 mouse hepatocytes
# Procedure: Hepatocyte stability was assessed, as described previously, on a liquid handling platform (Hamilton Microlab Vantage, Bonaduz, Switzerland) using cryopreserved pooled female CD-1 mouse hepatocytes in suspension. Viability was determined in a Neubauer chamber by trypan blue staining and was always above 70%. Compounds (1 µM final) were incubated with hepatocytes at a cell density of 0.2 × 10^6 cells/mL in Krebs–Henseleit buffer (pH 7.4). […] Incubations were carried out in duplicate at 37 °C under an atmosphere of 5% CO2 and 95% humidity. Aliquots were taken at time points of 0, 10, 20, 40, 60, and 90 min and quenched with a two-fold volume of an ACN solution containing 1.5 µM of an internal standard. The supernatants were further diluted to a ratio of 1:3 (v/v) with supernatants from other compound incubations for bioanalytical cocktailing designed to avoid analytical interference. The samples were analyzed by UHPLC-MS/MS (for details, see the Supplementary Materials).
# For quantitation with the Analyst software (version 1.7.2), MS peak area ratios of the compounds and an internal standard were calculated and transformed to nanomolar concentrations determined based on a four-point calibration comprising 1.2% to 150% of the incubation concentration. Calibration standards were prepared using heat-inactivated (60 °C for at least 15 min) hepatocytes as a biomatrix and processed in duplicate, as described for the test samples.
# For data analysis, the concentration data were plotted against the incubation time, the first-order kel was determined by non-linear regression using Biorails version 5.10.22/Morphit version 8.0 (The Edge Software Consultancy, Guildford, UK), and CLint values (expressed in µL/min/10^6 cells) were obtained by normalizing kel with the hepatocyte concentration.
# [2] = Unbound fraction in the microsome incubation (fu,mic) by rapid equilibrium dialysis; type: in vitro ADME, human; settings: for fu,mic: experimental unbound fraction in microsome incubation
# Procedure: (§1) The free fraction in mouse plasma, in the microsome incubation, and in the hepatocyte incubation was determined using rapid equilibrium dialysis (RED) in Teflon-coated 96-well RED devices. Test compounds were added as DMSO stocks to the donor matrix at 0.5 µM (final DMSO concentration of 0.5%) and dialyzed against phosphate buffer (70 mM, pH 7.4) in the receiver compartment for 4 h at 37 °C.
# (§2) The donor matrices differed for the various unbound fractions. […] Mouse serum was dialyzed overnight to exchange the carbonate with a phosphate buffer and was then used as a donor matrix in the experiment (50% serum in 70 mM phosphate buffer, pH 7.4). For fu,mic, human liver microsomes were used as a surrogate for mouse microsomes as a donor matrix in the experiment (0.8 mg protein/mL in 70 mM phosphate buffer, pH 7.4). For fu,hep, mouse hepatocytes were inactivated by incubating overnight at room temperature and then used as a donor matrix in the experiment (0.2 million cells/mL in 70 mM phosphate buffer, pH 7.4).
# (§3) Samples were taken from both compartments after 4 h of incubation and analyzed via UHPLC-MS/MS. The unbound fraction, fu, was calculated as follows: fu=creceiver/cdonor
# (§4) The fu values were interconverted from one matrix concentration to another using the following formula: fu2=fu1/M2/M1−fu1·M2/M1−1 where fu2 at matrix concentration M2 can be calculated from the fu1 value at matrix concentration M1.
# (§5) The recovery was calculated to check the mass balance after the experiment by adding the total compound levels in both the donor and receiver compartments.
# [3] = system: female CD-1 mouse; assay: IVIVE of mouse clearance from hepatocytes (well-stirred model, regression correction); settings: for Fold obs. / pred. (hep.) CL,b,u - Kilford / in vitro (hep.) pred. CLint,b - Kilford / in vitro (hep.) pred. CLint,b,u - Kilford: Kilford fu,hep
# Excerpt: Compounds with phase II metabolism were removed from the microsome set (N = 25). […] The following regression equations were derived for microsomes and hepatocytes, respectively: log predicted CLint = 0.8 * log scaled CLint + 0.6 and log predicted CLint = 0.6 * log scaled CLint + 0.8, with CLint expressed in mL/min/kg.
# According to Sohlenius-Sternbeck et al., the following equations were used for IVIVE: scaled CLint,b=in vitro CLint∗microsomes/hepatocytes/gram of liver∗liver weight/body weight∗fu,p/fu,inc∗Rb
# The physiological scaling factors, taken from Simcyp^TM version 13/1 (Certara), were 48 mg of microsomal protein per gram of liver (MPPGL), 101.7 × 10^6 hepatocytes per gram of liver (HPGL), a liver weight of 1.46 g, and a body weight of 0.025 kg. For microsomes and hepatocytes, fu,mic and fu,hep, were used as the unbound fraction in the incubation (fu,inc), respectively. predicted CLint,b=10^(log scaled CLint∗slope+intercept)
# For microsomes, a slope of 0.8 and an intercept of 0.6 were used, and for hepatocytes, a slope of 0.6 and an intercept of 0.8, according to the regression equations derived above. predicted CL,b=pred. CLint,b∗QH/pred. Clint,b+QH
# (§6) CLp/Rb observed CLint,b=QH∗obs. CL,b/QH−obs. CL,b
# (§7) All unbound clearance terms were calculated by dividing the respective clearance by fu,p. predicted/observed CL,b,u=pred./obs. CL,b/fu,p
# The above-described approach was applied for the IVIVE of clearance of the data set analyzed in this study. Additionally, in order to evaluate the impact of the Kilford calculations as a surrogate for the experimentally determined free fraction in the in vitro systems, clearance was extrapolated using the Kilford equations [16] using the same regression coefficients.
# [4] = Unbound fraction in the hepatocyte incubation (fu,hep) by rapid equilibrium dialysis; type: in vitro ADME, mouse; settings: for fu,hep: experimental unbound fraction in hepatocyte incubation
# Procedure: as §1, §2, §3, §4, §5
# [5] = system: female CD-1 mouse; assay: Pharmacokinetic studies in mice (IV clearance); type: in vivo; settings: for in vivo obs. CL,b: blood clearance; for in vivo obs. CLint,b: blood intrinsic clearance; for in vivo obs. CLint,b,u: unbound blood intrinsic clearance
# Procedure: Pharmacokinetic studies were carried out after approval by the internal animal welfare board and in compliance with the local and international animal welfare regulations similarly to a method described previously. Generally, three or twelve CD-1 mice per study were dosed intravenously (0.2–1 mg/kg) using solution vehicles, predominantly 40% PEG 200 in 1% DMSO. For the majority of the studies, blood samples were taken retro-orbitally under inhalation of anesthesia (0.1, 0.5, 1, 2, 4, 6, and 24 h). For the remaining studies, blood sampling was performed both retro-orbitally (0.1, 0.5, 1, 2, and 24 h) and from the saphenous vein (4 and 6 h) (N = 51), from the dorsal metatarsal vein (N = 34), or submandibularly (N = 12). Plasma was obtained by centrifugation (10,000× g; 4 °C; 5 min) and stored at −20 °C until UHPLC-MS/MS analysis. By the addition of an ACN solution containing internal standard, the proteins were precipitated and dissevered by centrifugation. The concentration of the respective molecules studied was determined by a standard UHPLC-MS/MS method (generic method similar to the method described for the determination of CLint using experimentally determined compound MS tuning parameters). Plasma concentrations were determined for each time point sampled. Clearance was estimated from the AUC by non-compartmental analysis, which was performed using WinNonlin® (Princeton, NJ, USA). The geometric mean was used when more than one clearance value from different studies was available.
# as §6, §7
# [6] = hepatocytes, experimental fu,hep
# [7] = recovery in equilibrium dialysis
SMILES,Hepatocyte CLint [1],"fu,mic [2]","fu,mic recovery ([2]; recovery in fu,mic dialysis)","Fold obs. / pred. (hep.) CL,b,u - Kilford ([3]; hepatocytes)","in vitro (hep.) pred. CLint,b - Kilford ([3]; hepatocytes)","in vitro (hep.) pred. CLint,b,u - Kilford ([3]; hepatocytes)","Fold obs. / pred. (hep.) CL,b,u - exp. fu,hep [3, 6]","in vitro (hep.) pred. CLint,b - exp. fu,hep [3, 6]","in vitro (hep.) pred. CLint,b,u - exp. fu,hep [3, 6]","fu,hep [4]","fu,hep recovery ([4]; recovery in fu,hep dialysis)","in vivo obs. CL,b [5]","in vivo obs. CLint,b [5]","in vivo obs. CLint,b,u [5]",also measured
O=C(O)c1cc(-c2ccc(F)cc2F)ccc1O [MSC001],11.9 µl/min/1e6 cells,91.70%,98%,0.3,9.82 mL/min/kg,576.00 mL/min/kg,0.3,9.94 mL/min/kg,582.73 mL/min/kg,97.45%,232%,2.83 mL/min/kg,2.91 mL/min/kg,170.57 mL/min/kg,–
CNC(=O)c1cc(Oc2ccc3nc(N[C@@H]4CCCC[C@H]4O)sc3c2)ccn1 [MSC003],16.5 µl/min/1e6 cells,87.21%,98%,0.356,21.81 mL/min/kg,285.43 mL/min/kg,0.36,21.48 mL/min/kg,281.21 mL/min/kg,100.00%,80%,6.38 mL/min/kg,6.81 mL/min/kg,89.15 mL/min/kg,–
COc1cccc(OCCCN)c1-c1cc(Nc2cnc(C#N)cn2)n[nH]1 [MSC020],70.5 µl/min/1e6 cells,58.66%,61%,1.5,99.13 mL/min/kg,516.30 mL/min/kg,1.5,103.91 mL/min/kg,541.18 mL/min/kg,91.30%,50%,77.00 mL/min/kg,317.36 mL/min/kg,1652.94 mL/min/kg,–
N#Cc1c[nH]c2c(C(=O)N3CCN(CCc4ccc(F)cc4)CC3)cccc12 [MSC213],222.1 µl/min/1e6 cells,35.01%,–,1.4,–,–,–,–,–,87.81%,–,63.61 mL/min/kg,169.91 mL/min/kg,3658.76 mL/min/kg,"fu,mic recovery [2, 7]: 87%; in vitro (hep.) pred. CLint,b - Kilford ([3]; from hepatocytes): 83.55 mL/min/kg; in vitro (hep.) pred. CLint,b,u - Kilford ([3]; from hepatocytes): 1799.14 mL/min/kg; in vitro (hep.) pred. CLint,b - exp. fu,hep ([3]; from hepatocytes, exp. fu,hep): 89.51 mL/min/kg; in vitro (hep.) pred. CLint,b,u - exp. fu,hep ([3]; from hepatocytes, exp. fu,hep): 1927.40 mL/min/kg; Fold obs. / pred. (hep.) CL,b,u - exp. fu,hep ([3]; hepatocytes, exp. fu,hep): 1.3; fu,hep recovery [4, 7]: 136%"
